Among the data in the NIST ThermoML archive (doi:10.1016/j.jct.2014.02.005) are mass density values, retold here.

For the series the following is noted: 101.33 kPa, Liquid, Vibrating tube method.

Each structure is given as a SMILES string. ± gives the expanded uncertainty stated by the source.

The term mass density denotes the mass of a sample divided by its volume. In the case of `Cc1ccccc1` [toluene], the mass density stood at 871.92 ± 1 kg/m3 (288.2 K), 862.49 ± 1 kg/m3 (298.2 K) and 848.23 ± 1 kg/m3 (313.2 K).

Take `O` [water]: the mass density (313.2 K) came to 992.13 ± 1 kg/m3.

As to `CC(=O)O` [acetic acid], the mass density was 1055.01 ± 1 kg/m3 (288.2 K), 1043.67 ± 1 kg/m3 (298.2 K) and 1026.72 ± 1 kg/m3 (313.2 K).
